Data: patent publication US10918727B2, “Peptide with ability to penetrate cell membrane” (ICURE BNP CO., LTD., priority 2016, dated 2021)

Tested on: male ICR mice
Assay: Repeated-dose toxicity of nasal insulin formulations (10 days)
Format: in vivo, mouse
Settings: intranasal once a day for 10 days (insulin 2 IU/kg)
Experimental: The collected blood was centrifuged to isolate serum, and the isolated serum was analyzed using an automatic serum analyzer. […] From the organ tissue, paraffin sections were prepared, and then stained with H&E (Hematoxylin and Eosin). Histopathological examination of the stained tissues was performed using an optical microscope.

C[C@H](CCC(=O)NCCS(=O)(=O)[O-])[C@H]1CC[C@H]2[C@@H]3CC[C@@H]4C[C@H](O)CC[C@]4(C)[C@H]3C[C@H](O)[C@]12C.[Na+] [sodium taurodeoxycholate]
histological evaluation of the nasal mucosal tissue: destroyed
